Source: US20220257491A1, “Prebiotic Oral Care Compositions and Methods” (Colgate-Palmolive Company, priority 2021, published 2022)
Several values for one entry are separate records, joined by “and”; a condition that tells them apart may be missing. Equal entries are not always repeated. Marks after values point to notes of the source that are not given here.

What was measured:
Format in all cases: cell-based
A. actinomycetemcomitans = test: Multi-species biofilm composition: absolute abundance of A. actinomycetemcomitans; conditions: mean±SD n=3
Experimental: (§1) Biofilms are grown vertically on Calcium Deficient Hydroxyapatite (CAD-HA) disks (Hitemco Medical, Old Bethpage, USA) using the Amsterdam Active Adhesion model. Biofilms are allowed to establish during 24 h (37° C., 170 rpm) under micro-aerophilic conditions (6% O2, 7% CO2, 7% H2, 80% N2). After this 24 h, disks are rinsed 3 times a day for 3 minutes (RT, 250 rpm), for 3 consecutive days, by transferring the lid containing the disks to a new 24-well plate containing 2 mL/well of the appropriate substrate solution. As a negative control, PBS (pH 5.7) without substrate supplementation is used. After each rinsing step, disks are shortly dip-rinsed in a new 24-well plate containing fresh modified BHI medium (2 mL/well) to remove remaining substrate traces. Subsequently, the lid is transferred to another 24-well plate containing fresh modified BHI medium (2 mL/well), followed by incubation (micro-aerophilic, 37° C., 170 rpm) until the next rinsing step.
(§2) NADM, N-acetyl-D-glucosamine (“NADG”) and D-(+)-mannose are selected to determine their effects on multi-species biofilm composition. […] decrease in absolute numbers in at least four of the pathogenic bacterial species tested in the assay, compared to the control, the results of which are described in Table 1 below. Absolute abundances of bacterial species are shown as mean±SD (n=3) logarithmic values of the genome equivalents per millilitre (log(Geq/mL)).

P. intermedia = test: Multi-species biofilm composition: absolute abundance of P. intermedia; conditions: mean±SD n=3
Experimental: as §1
NADM, N-acetyl-D-glucosamine (“NADG”) and D-(+)-mannose are selected to determine their effects on multi-species biofilm composition. Repeated rinsing of the biofilms with the substrates at a concentration of 1M results in a significant decrease in absolute numbers in at least four of the pathogenic bacterial species tested in the assay, compared to the control, the results of which are described in Table 1 below. Absolute abundances of bacterial species are shown as mean±SD (n=3) logarithmic values of the genome equivalents per millilitre (log(Geq/mL)).

S. sobrinus = test: Multi-species biofilm composition: absolute abundance of S. sobrinus; conditions: mean±SD n=3
Experimental: as §1, §2

S. sanguinis = test: Multi-species biofilm composition: absolute abundance of S. sanguinis; conditions: mean±SD n=3
Experimental: as §1, §2

multi-species biofilm = test: Relative multi-species biofilm composition (groups of bacterial species); conditions: mean±SD n=3
Experimental: as §1, §2
Relative abundances of the different groups (beneficial/commensals, periodontal pathogens, cariogenic pathogens) of bacterial species are shown as mean±SD (n=3) percentage of the genome equivalents per millilitre (% (Geq/mL)). […] NADM: N-acetyl-D-mannosamine; NADG: N-acetyl-D-glucosamine.

multi-species biofilms = test: Multi-species biofilm organic acid balances (supernatant); conditions: >0 production, <0 consumption, mean±SD n=3
Experimental: as §1
To examine the effect of NADM and the influence of the orientation and absence/presence of the N-acetyl group on organic acid production and consumption, supernatant samples from substrate-treated or untreated multi-species biofilms are analysed. […] When comparing relevant significant differences between substrate conditions, an increase in acetate production is observed for NADM compared to D-(+)-mannose (3084±174 vs. 1934±56 mg/L).

[1] = tested on: A. actinomycetemcomitans virulence genes; test: Multi-species biofilm virulence gene expression, SYBR RT-qPCR: A. actinomycetemcomitans; conditions: for Fold Change in virulence gene expression: aae / Fold Change in virulence gene expression: apaH / Fold Change in virulence gene expression: cdtB / Fold Change in virulence gene expression: emaA / Fold Change in virulence gene expression: flp / Fold Change in virulence gene expression: ltxA / Fold Change in virulence gene expression: omp29 / Fold Change in virulence gene expression: omp100 / Fold Change in virulence gene expression: orf859 / Fold Change in virulence gene expression: pgA / Fold Change in virulence gene expression: vapA / Fold Change in virulence gene expression: vppA: relative to control (=1), 2^-ΔΔCt, geometric mean n=3
Experimental: as §1
The expression of 33 virulence genes from 4 periodontal pathogens is analysed to evaluate the relative virulence of the substrate-treated biofilms. For all three substrates, virulence gene expression is determined relatively to the control, and these values are also compared between substrates when this is relevant (Tables 5a-5d).

[2] = tested on: human oral keratinocytes (HOK-18A); test: Inflammatory mediator gene expression in keratinocytes exposed to substrate-treated biofilms; conditions: for Fold change in inflammatory mediator gene expression: IL-1β / Fold change in inflammatory mediator gene expression: IL-6 / Fold change in inflammatory mediator gene expression: IL-8 / Fold change in inflammatory mediator gene expression: MMP-8 / Fold change in inflammatory mediator gene expression: TNF-α: relative to control (=1), geometric mean (95% C.I.) n=3
Experimental: Cultures of immortalized human oral keratinocytes (HOK-18A) are grown. The relative inflammatory potential of the substrate-treated multi-species biofilms is evaluated by analyzing the expression of five inflammatory mediator genes in human oral keratinocytes (HOKs) exposed to the substrate-treated biofilms. […] The IL-8 levels in the cellular supernatant are determined as well. RNA is converted to cDNA and relative expression of inflammatory mediator genes is determined as described above with respect to the cellular housekeeping gene (3-actin.
In HOKs exposed to substrate-treated (substrate concentrations of 1 M) multi-species biofilms, mostly decreases in inflammatory mediator gene expression are observed and measured via SYBR RT-qPCR, the results of which are detailed in Table 6.
All substrates are dissolved in PBS at a concentration of 1 M (upper part) or 1% (w/v) (lower part). Values between 0 and 1 represent relative downregulation, values >1 represent relative upregulation. […] For such values, statistically significant differences between two experimental conditions are marked with ‘#1’ (vs. NADM), ‘#2’ (vs. NADG), ‘#3’ (vs. D-(+)-mannose) (P<0.05).

[3] = biofilm rinsed with substrate 1%
[4] = biofilm rinsed with substrate 1M

Question: Which results are given for `CC(=O)N[C@@H]1C(O)O[C@H](CO)[C@@H](O)[C@@H]1O` (stereo partly drawn) [NADM, N-acetyl-D-mannosamine]?
Answer: Absolute abundance Aa (A. actinomycetemcomitans) (A. actinomycetemcomitans; substrate 1%(w/v) in PBS): 9.51 ± 0.05 log(Geq/mL); Absolute abundance Aa (A. actinomycetemcomitans) (A. actinomycetemcomitans; substrate 1 M in PBS): 7.84 ± 0.53 log(Geq/mL); Absolute abundance Pi (P. intermedia) (P. intermedia; substrate 1%(w/v) in PBS): 7.48 ± 0.40 log(Geq/mL); Absolute abundance Pi (P. intermedia) (P. intermedia; substrate 1 M in PBS): 9.07 ± 0.06 log(Geq/mL); Absolute abundance S. sobrinus (S. sobrinus; substrate 1%(w/v) in PBS): 5.24 ± 0.27 log(Geq/mL); Absolute abundance S. sobrinus (S. sobrinus; substrate 1 M in PBS): 6.05 ± 0.23 log(Geq/mL); Absolute abundance S. sang. (S. sanguinis) (S. sanguinis; substrate 1%(w/v) in PBS): 8.62 ± 0.39 log(Geq/mL); Absolute abundance S. sang. (S. sanguinis) (S. sanguinis; substrate 1 M in PBS): 9.10 ± 0.29 log(Geq/mL); Relative abundance Beneficials/Commensals (multi-species biofilm; substrate 1%(w/v) in PBS): 61.62 ± 4.88 % (Geq/mL); Relative abundance Cariogenic Pathogens (multi-species biofilm; substrate 1%(w/v) in PBS): 0.05 ± 0.01 % (Geq/mL); Relative abundance Periodontal Pathogens (multi-species biofilm; substrate 1%(w/v) in PBS): 38.32 ± 4.86 % (Geq/mL); Relative abundance Beneficial or commensals (multi-species biofilm; substrate 1 M in PBS): 97.61±0.28 % (Geq/mL); Relative abundance Cariogenic Pathogens (multi-species biofilm; substrate 1 M in PBS): 0.06 ± 0.04 % (Geq/mL); Relative abundance Periodontal Pathogens (multi-species biofilm; substrate 1 M in PBS): 2.34±0.31 % (Geq/mL) and 2.34 ± 0.31^#2, 3 % (Geq/mL); acetate level in biofilm supernatant (multi-species biofilms; substrate 1%(w/v)): 396 ± 11 mg/L; butyrate level in biofilm supernatant (multi-species biofilms; substrate 1%(w/v)): 1989 ± 44 mg/L; formate level in biofilm supernatant (multi-species biofilms; substrate 1%(w/v)): 3768 ± 174 mg/L; lactate level in biofilm supernatant (multi-species biofilms; substrate 1%(w/v)): 125 ± 0 mg/L; propionate level in biofilm supernatant (multi-species biofilms; substrate 1%(w/v)): 1891 ± 79 mg/L; butyrate level in biofilm supernatant (multi-species biofilms; substrate 1 M): 541±52 mg/L and 541 ± 52*^, #2, 3 mg/L; formate level in biofilm supernatant (multi-species biofilms; substrate 1 M): 791.9 ± 138.27 mg/L and 792 ± 138 mg/L; lactate level in biofilm supernatant (multi-species biofilms; substrate 1 M): 125 ± 0 mg/L; propionate level in biofilm supernatant (multi-species biofilms; substrate 1 M): 2052 ± 54 mg/L; Fold Change in virulence gene expression: aae ([1]; substrate 1% (w/v)): 0.92 fold; Fold Change in virulence gene expression: apaH ([1]; substrate 1% (w/v)): 0.81 fold; Fold Change in virulence gene expression: cdtB ([1]; substrate 1% (w/v)): 0.59 fold; Fold Change in virulence gene expression: emaA ([1]; substrate 1% (w/v)): 0.40 fold; Fold Change in virulence gene expression: flp ([1]; substrate 1% (w/v)): 0.35 fold; Fold Change in virulence gene expression: ltxA ([1]; substrate 1% (w/v)): 0.29 fold; Fold Change in virulence gene expression: omp29 ([1]; substrate 1% (w/v)): 0.76 fold; Fold Change in virulence gene expression: omp100 ([1]; substrate 1% (w/v)): 0.42 fold; Fold Change in virulence gene expression: orf859 ([1]; substrate 1% (w/v)): 0.57 fold; Fold Change in virulence gene expression: pgA ([1]; substrate 1% (w/v)): 1.07 fold; Fold Change in virulence gene expression: vapA ([1]; substrate 1% (w/v)): 0.82 fold; Fold Change in virulence gene expression: vppA ([1]; substrate 1% (w/v)): 1.01 fold; A. actinomycetemcomitans gene expression decrease: flp, emaA and omp100 ([1]; substrate 1%(w/v)): 2.4- to 2.9 fold; Fold Change in virulence gene expression: aae ([1]; substrate 1M): 0.27 fold; Fold Change in virulence gene expression: apaH ([1]; substrate 1M): 0.25 fold; Fold Change in virulence gene expression: cdtB ([1]; substrate 1M): 0.31 fold; Fold Change in virulence gene expression: emaA ([1]; substrate 1M): 0.36 fold; Fold Change in virulence gene expression: flp ([1]; substrate 1M): 0.85 fold; Fold Change in virulence gene expression: ltxA ([1]; substrate 1M): 0.01 fold; Fold Change in virulence gene expression: omp29 ([1]; substrate 1M): 0.48 fold; Fold Change in virulence gene expression: omp100 ([1]; substrate 1M): 0.04 fold; Fold Change in virulence gene expression: orf859 ([1]; substrate 1M): 0.11 fold; Fold Change in virulence gene expression: pgA ([1]; substrate 1M): 3.53 fold; Fold Change in virulence gene expression: vapA ([1]; substrate 1M): 0.74 fold; Fold Change in virulence gene expression: vppA ([1]; substrate 1M): 0.81 fold; Fold change in inflammatory mediator gene expression: IL-1β [2, 3]: 0.83 (0.66-1.04) fold; Fold change in inflammatory mediator gene expression: IL-6 [2, 3]: 0.73 (0.48-1.13) fold; Fold change in inflammatory mediator gene expression: IL-8 [2, 3]: 1.32 (1.14-1.53) fold; Fold change in inflammatory mediator gene expression: MMP-8 [2, 3]: 0.62 (0.21-1.84) fold; Fold change in inflammatory mediator gene expression: TNF-α [2, 3]: 0.69 (0.48-1.00) fold; Fold change in inflammatory mediator gene expression: IL-1β [2, 4]: 0.59 (0.30-1.14) fold; Fold change in inflammatory mediator gene expression: IL-6 [2, 4]: 0.86 (0.34-2.18) fold; Fold change in inflammatory mediator gene expression: IL-8 [2, 4]: 0.10 (0.05-0.17)* fold; Fold change in inflammatory mediator gene expression: MMP-8 [2, 4]: 1.66 (0.82-3.35)* fold; Fold change in inflammatory mediator gene expression: TNF-α [2, 4]: 0.73 (0.64-0.83) fold; MMP-8 gene expression increase ([2]; substrate 1 M): 1.7 fold
